# Laboratory results as given in patent publication US20090215777A1, “Pyrimidine Derivatives As HSP90 Inhibitors” (Astex Therapeutics Ltd., priority 2005, published 2009).
# Molecular target: T1, human Hsp90α N-terminal domain (Homo sapiens, UniProt P07900)
# T1 construct: Cloning, expression, and purification of the Human Hsp90α N-terminal domain were performed according to published methods; made in house
# Experiment: Isothermal titration calorimetry (ITC)
# Assay type: binding
# Conditions: 25 mM Tris, 100 mM NaCl, 1 mM MgCl2, 1 mM TCEP, 5% DMSO, pH 7.4
# Description: The ability of the compounds of the invention to bind to human Hsp90 proteins was determined using isothermal titration calorimetry.
# Isothermal titration calorimetry (ITC) experiments were performed with a VP-ITC titration calorimeter (Microcal Inc., Northampton, Mass., USA). […] All solutions were filtered and degassed prior to a titration being carried out. The enthalpy change resulting from each injection of ligand was obtained through integration of the calorimetric signal. Data were analysed using Origin 7.0 (Microcal Software Inc., Northampton, Mass.). Heats of dilution were estimated using the final injections of each individual titration and subtracted before data fitting. Different ITC experimental formats were employed in order to obtain compound dissociation constants (Kd's) over a wide range of affinities. […] In this type of experiment the stoichiometry parameter (N) was locked at 1 for data fitting.
row,Compound,Kd
1,CCOC(=O)C(C)Oc1ccc(-c2cc(Cl)nc(N)n2)c(Cl)c1 (stereo not shown) [Example 67],< 1000 nM
2,"COc1cccc(OCC2CCOCC2)c1-c1cc(Cl)nc(N)n1 [Example 21, 4-Chloro-6-[2-methoxy-6-(tetrahydro-pyran-4-yl-methoxy)-phenyl]-pyrimidin-2-yl-amine]",< 1000 nM
3,"CN(C)CCOc1ccc(-c2cc(Cl)nc(N)n2)c(Cl)c1 [Example 74, 4-Chloro-6-[2-chloro-4-(2-dimethylamino-ethoxy)-phenyl]-pyrimidin-2-yl amine]",< 10000 nM
4,"CC(C#N)Oc1ccc(-c2cc(Cl)nc(N)n2)c(Cl)c1 (stereo not shown) [Example 75, 2-[4-(2-Amino-6-chloro-pyrimidin-4-yl)-3-chloro-phenoxy]-propionitrile]",< 1000 nM
5,"COc1c(CC(C)(C)C)cccc1-c1cc(Cl)nc(N)n1 [Example 71, 4-Chloro-6-[3-(2,2-dimethyl-propyl)-2-methoxy-phenyl]-pyrimidin-2-yl-amine]",< 1000 nM
6,"COc1ccc(-c2c(OC)ccc(Br)c2OC)c(OC)c1-c1cc(Cl)nc(N)n1 [Example 46, 4-(3′-Bromo-2,4,2′,6′-tetramethoxy-biphenyl-3-yl)-6-chloro-pyrimidin-2-ylamine]",< 1000 nM
7,"Cc1cccc(-c2cc(Cl)nc(N)n2)c1Cl [Example 76, 4-Chloro-6-(2-chloro-3-methyl-phenyl)-pyrimidin-2-yl-amine]",< 1000 nM
8,"Nc1nc(Cl)cc(-c2cc(O)c(Cl)cc2Cl)n1 [Example 77, 5-(2-Amino-6-chloro-pyrimidin-4-yl)-2,4-dichloro-phenol]",< 1000 nM
9,"COc1cccc(OC)c1-c1cc(C)nc(N)n1 [Example 1, 4-(2,6-Dimethoxy-phenyl)-6-methyl-pyrimidin-2-ylamine]",< 10000 nM
10,"Nc1ncc(Br)c(-c2ccc(Cl)cc2Cl)n1 [Example 62, 5-Bromo-4-(2,4-dichloro-phenyl)-pyrimidin-2-ylamine]",< 30000 nM
11,"COc1ccc(Cl)c(-c2cc(Cl)nc(N)n2)c1 [Example 49, 4-Chloro-6-(2-chloro-5-methoxy-phenyl)-pyrimidin-2-ylamine]",< 1000 nM
12,"Nc1nc(Cl)cc(-c2ccc(Cl)cc2Cl)n1 [Example 30, 4-Chloro-6-(2,4-dichloro-phenyl)-pyrimidin-2-yl-amine]",< 1000 nM
13,"COc1cc(-c2cc(Cl)nc(N)n2)c(Cl)cc1Cl [Example 61, 4-Chloro-6-(2,4-dichloro-5-methoxy-phenyl)-pyrimidin-2-ylamine]",< 1000 nM
14,"COc1cccc(OCCN2CCCCC2)c1-c1cc(Cl)nc(N)n1 [Example 52, 4-Chloro-6-[2-methoxy-6-(2-piperidin-1-yl-ethoxy)-phenyl]-pyrimidin-2-ylamine]",< 10000 nM
15,"COc1cccc(-c2cc(Cl)nc(N)n2)c1Cl [Example 69, 4-Chloro-6-(2-chloro-3-methoxy-phenyl)-pyrimidin-2-yl-amine]",< 1000 nM
16,"Nc1nc(Cl)cc(-c2cc(OCCN3CCOCC3)c(Cl)cc2Cl)n1 [Example 80, 4-Chloro-6-[2,4-dichloro-5-(2-morpholin-4-yl-ethoxy)-phenyl]-pyrimidin-2-yl-amine]",< 1000 nM
17,"Nc1ncc(-c2cn[nH]c2)c(-c2ccc(Cl)cc2Cl)n1 [Example 63, 4-(2,4-Dichloro-phenyl)-5-(1H-pyrazol-4-yl)-pyrimidin-2-ylamine]",< 10000 nM
18,"Nc1nc(Cl)cc(-c2ccc(O)cc2Cl)n1 [Example 64, 4-(2-Amino-6-chloro-pyrimidin-4-yl)-3-chloro-phenol]",< 1000 nM
19,"COc1cc(Cl)cc(Cl)c1-c1cc(Cl)nc(N)n1 [Example 59, 4-Chloro-6-(2,4-dichloro-6-methoxy-phenyl)-pyrimidin-2-ylamine]",< 1000 nM
20,CCOc1ccc(-c2cc(Cl)nc(N)n2)c(Cl)c1 [Example 29],< 1000 nM
21,"COc1cc(OC)c(-c2cc(Cl)nc(N)n2)c(OC)c1 [Example 27, 4-Chloro-6-(2,4,6-trimethoxy-phenyl)-pyrimidin-2-yl-amine]",< 1000 nM
22,"CCOc1ccc2ccccc2c1-c1cc(Cl)nc(N)n1 [Example 44, 4-Chloro-6-(2-ethoxy-naphthalen-1-yl)-pyrimidin-2-ylamine]",< 10000 nM
23,"COc1cccc(OCCN2CCOCC2)c1-c1cc(Cl)nc(N)n1 [Example 48, 4-Chloro-6-[2-methoxy-6-(2-morpholin-4-yl-ethoxy)-phenyl]-pyrimidin-2-ylamine]",< 1000 nM

row,Compound,Kd
1,"CC(C)(C)OC(=O)NCCCOc1cccc(Cl)c1-c1cc(Cl)nc(N)n1 [Example 53, {3-[2-(2-Amino-6-chloro-pyrimidin-4-yl)-3-chloro-phenoxy]-propyl}-carbamic acid tert-butyl ester]",< 1000 nM
2,"NCCOc1cccc(Cl)c1-c1cc(Cl)nc(N)n1 [Example 56, 4-[2-(2-Amino-ethoxy)-6-chloro-phenyl]-6-chloro-pyrimidin-2-yl-amine]",< 1000 nM
3,"CC(C)Oc1ccc(-c2cc(Cl)nc(N)n2)c(Cl)c1 [Example 65, 4-Chloro-6-(2-chloro-4-isopropoxy-phenyl)-pyrimidin-2-ylamine]",< 1000 nM
4,"CC(C)(C)Cc1cccc(-c2cc(Cl)nc(N)n2)c1Cl [Example 72, 4-Chloro-6-[2-chloro-3-(2,2-dimethyl-propyl)phenyl]-pyrimidin-2-yl-amine]",< 1000 nM
5,"Nc1nc(Cl)cc(-c2cc(OCc3ccccc3)c(Cl)cc2Cl)n1 [Example 78, 4-(5-Benzyloxy-2,4-dichloro-phenyl)-6-chloro-pyrimidin-2-yl-amine]",< 1000 nM
6,"Nc1nccc(-c2ccc(Cl)cc2Cl)n1 [Example 60, 4-(2,4-Dichloro-phenyl)-pyrimidin-2-ylamine]",< 10000 nM
7,"NC(=O)COc1cc(-c2cc(Cl)nc(N)n2)c(Cl)cc1Cl [Example 81, 2-[5-(2-Amino-6-chloro-pyrimidin-4-yl)-2,4-dichloro-phenoxy]-acetamide]",< 1000 nM
8,"COc1cccc(-c2cc(Cl)nc(N)n2)c1OC [Example 70, 4-Chloro-6-(2,3-dimethoxy-phenyl)-pyrimidin-2-yl-amine]",< 1000 nM
9,"CCOC(=O)C(C)(C)Oc1ccc(-c2cc(Cl)nc(N)n2)c(Cl)c1 [Example 68, 2-[4-(2-Amino-6-chloro-pyrimidin-4-yl)-3-chloro-phenoxy]-2-methyl-propionic acid ethyl ester]",< 1000 nM
10,"COc1ccccc1-c1cc(C(F)F)nc(N)n1 [Example 58, 4-Difluoro-methyl-6-(2-methoxy-phenyl)-pyrimidin-2-ylamine]",< 30000 nM
11,"CC(C)(Oc1ccc(-c2cc(Cl)nc(N)n2)c(Cl)c1)C(=O)OCC1CCNCC1 [Example 83, 2-[4-(2-Amino-6-chloro-pyrimidin-4-yl)-3-chloro-phenoxy]-2-methyl-prop-ionic acid piperidin-4-ylmethyl ester]",< 1000 nM
12,"CCOC(=O)COc1ccc(-c2cc(Cl)nc(N)n2)c(Cl)c1 [Example 66, [4-(2-Amino-6-chloropyrimidin-4-yl)-3-chloro-phenoxy]-acetic acid ethyl ester]",< 1000 nM
13,"CC(C)(C)OC(=O)N1CCC(COC(=O)C(C)(C)Oc2ccc(-c3cc(Cl)nc(N)n3)c(Cl)c2)CC1 [Example 82, 4-{2-[4-(2-Amino-6-chloro-pyrimidin-4-yl)-3-chloro-phenoxy]-2-methyl-propionyloxy-methyl}-piperidine-1-carboxylic acid tert-butyl ester]",< 1000 nM
14,"COc1ccc(-c2cc(Cl)nc(N)n2)c(Cl)c1 [Example 73, 4-Chloro-6-(2-chloro-4-methoxy-phenyl)-pyrimidin-2-ylamine]",< 1000 nM
15,CC(C)(C)OC(=O)NCCOc1cccc(Cl)c1-c1cc(Cl)nc(N)n1 [Example 57],< 1000 nM
16,"Nc1nc(Cl)cc(-c2ccncc2Cl)n1 [Example 50, 4-Chloro-6-(3-chloro-pyridin-4-yl)-pyrimidin-2-ylamine]",< 1000 nM
17,"CCN(CC)CCOc1cc(-c2cc(Cl)nc(N)n2)c(Cl)cc1Cl [Example 79, 4-Chloro-6-[2,4-dichloro-5-(2-diethylamino-ethoxy)-phenyl]-pyrimidin-2-yl-amine]",< 1000 nM
18,"COc1ccc(-c2ccccc2)c(OC)c1-c1cc(Cl)nc(N)n1 [Example 45, 4-Chloro-6-(2,4-dimethoxy-biphenyl-3-yl)-pyrimidin-2-ylamine]",< 10000 nM
19,"COc1cccc(OC)c1-c1cc(Cl)nc(N)n1 [Example 4, 4-Chloro-6-(2,6-dimethoxy-phenyl)-pyrimidin-2-ylamine]",< 1000 nM
20,"COc1ccc2ccccc2c1-c1cc(Cl)nc(N)n1 [Example 51, 4-Chloro-6-(2-methoxy-naphthalen-1-yl)-pyrimidin-2-ylamine]",< 1000 nM
21,"COc1cccc(OCC(C)C)c1-c1cc(Cl)nc(N)n1 [Example 47, 4-Chloro-6-(2-isobutoxy-6-methoxy-phenyl)-pyrimidin-2-ylamine]",< 1000 nM
22,"CN(C)CCOc1cccc(Cl)c1-c1cc(Cl)nc(N)n1 [Example 55, 4-Chloro-6-[2-chloro-6-(2-dimethylamino-ethoxy)-phenyl]-pyrimidin-2-yl amine]",< 1000 nM
23,CN(C)CCCOc1cccc(Cl)c1-c1cc(Cl)nc(N)n1 [Example 54],< 1000 nM
